Reference: patent US20140213445A1, “Use of Pesticidal Active 3-Arylquinazolin-4-One Derivatives in Soil Application Methods” (BASF SE, priority 2011, published 2014)

What was measured:
[1] = system: 2-Spotted Spider Mite (Tetranychus urticae); test: Test B.1.1 Foliar assay 2-spotted spider mite on Sieva lima bean plants; format: in vivo; settings: 120 h, test solution 100 ppm, infested lima bean plants dipped, counts after 5 days, read-out: mortality in comparison with untreated controls
Protocol: The active compounds were formulated in 50:50 (vol:vol) acetone:water and 100 ppm Kinetica™ surfactant.
At about 2 hours before treatment Sieva lima bean plants with primary leaves expanded to 7-12 cm were infested by placing on each a small piece from an infested leaf (with about 100 mites) taken from the main colony in order to allow the mites to move over to the test plant to lay eggs. The piece of leaf used to transfer the mites was removed. The newly-infested plants were dipped in the test solution and allowed to dry. The test plants were kept under fluorescent light (24 hour photoperiod) at about 25° C. and about 20-40% relative humidity. After 5 days mortality counts were made.

[2] = system: Kanzawa Spider Mite (Tetranychus kanzawai); test: Test B.1.2 Foliar assay Kanzawa spider mite on potted cotton plants; format: in vivo; settings: cotton plants sprayed, assessed after 24, 72 and 120 hours, read-out: mortality in comparison with untreated controls
two spotted spider mites [3] = test: Test B.1.4 Seed treatment assay in cotton; format: in vivo; settings: cotton seed coated 0.5 mg active ingredient/seed, assessed 4 days after release of mites
two spotted spider mites [4] = test: Test B.1.5 Seed treatment assay in cucumber; format: in vivo; settings: cucumber seed coated 0.5 mg active ingredient/seed, assessed 4 days after release of mites
Protocol: Test solution comprising a compound of the present invention is prepared at desired concentration using water and acetone as organic solvent. Cucumber seeds are coated with such prepared test solution applied at the rate of 0.5 mg active ingredient/seed and sown to the pots. After plant emergence (eleven days after treatment & planting), a mixed population of two spotted spider mites is released onto the leaves.
Four days after the release of spider mites, the acaricidal efficacy is measured by means of the rating of the damage caused by spider mites.
Percent damage as lesions was visually assessed, and means were calculated for each treatment. Mean percent damage reduction relative to the solvent blank was calculated as 100−(mean % lesions in treatment/mean % lesions in Solvent blank)*100.

[5] = system: two spotted spider mites (Tetranychus urticae); settings: soil drench 4 mg active ingredient/plant, mites released 4 days after treatment, assessed 5 days after release
[6] = system: root-knot nematode (Meliodogyne spp.) juveniles; test: Test B.2.1 Tomato soil drench against root-knot nematode juveniles; format: in vivo; settings: soil drench 0.75 mg active ingredient/plant, galls counted at 14 DAT
Protocol: Tomatoes were grown in potting soil until the approximate first true leaf stage (about 2 weeks after planting). Tomatoes were transplanted into play sand. Seven days after transplant, technical material of test compound was dissolved in acetone, and then water was added to achieve a final concentration of 50% acetone. 1 mL of solution was pipetted onto the tomato root zone. One day after treatment (DAT), each pot was infested with about 500 root-knot nematode (Meliodogyne spp.) juveniles in 1 ml distilled water. Immediately after infestation, plants were placed in the greenhouse. Plants were top watered and fertilized daily. At 14 DAT, the tomato roots were rinsed off, and the number of galls was counted. Replication was 5-times.

| Structure (SMILES) | mortality at 100 ppm [1] [%] | mortality at 100 ppm [2] [%] | mean percent damage reduction in the cotyledon stage (two spotted spider mites [3]) | mean percent damage reduction in the cotyledon stage (two spotted spider mites [4]) | mean percent damage reduction in comparison with untreated controls [5] | mean percent reduction of galls in comparison with untreated controls [6] |
| --- | --- | --- | --- | --- | --- | --- |
| Cc1cc(F)c(-n2cnc3ccccc3c2=O)cc1[S+]([O-])CC(F)(F)F (centres unmarked) [CE.I.35, 2-(2,2,2-trifluoroethylsufinyl)-4-(4-oxo-quinazolin-3-yl)-5-fluoro-toluol] | ≥ 70 | ≥ 70 | at least 90% | at least 50% | at least 70% |  |
| Cc1cc(F)c(-n2cnc3ccc(F)cc3c2=O)cc1SCC(F)(F)F [CE.I.30, 6-Fluoro-3-[2-fluoro-4-methyl-5-2(2,2,2-trifluoroethylsulfanyl)-phenyl]-3H-quinazolin-4-one] | ≥ 70 |  |  |  |  |  |
| Cc1cc(F)c(-n2cnc3ccc(F)cc3c2=O)cc1[S+]([O-])CC(F)(F)F (centres unmarked) [CE.I.31, 6-Fluoro-3-[2-fluoro-4-methyl-5-2(2,2,2-trifluoroethanesulfinyl)-phenyl]-3H-quinazolin-4-one] | ≥ 70 | ≥ 70 |  |  |  | at least 90% |
| Cc1cc(F)c(-n2cnc3ccccc3c2=O)cc1SCC(F)(F)F [CE.I.34, 2-(2,2,2-trifluoroethylsufanyl)-4-(4-oxo-quinazolin-3-yl)-5-fluoro-toluol] | ≥ 70 | ≥ 70 |  |  |  |  |
| Cc1cc(F)c(-n2cnc3ccc(OC(F)(F)F)cc3c2=O)cc1[S+]([O-])CC(F)(F)F (centres unmarked) [CE.I.33, 6-Trifluormethoxy-3-[2-fluoro-4-methyl-5-2(2,2,2-trifluoroethanesulfinyl)-phenyl]-3H-quinazolin-4-one] | ≥ 70 | ≥ 70 |  |  |  |  |
| Cc1cc(F)c(-n2cnc3ccc(OC(F)(F)F)cc3c2=O)cc1SCC(F)(F)F [CE.I.32, 6-Trifluoromethoxy-3-[2-fluoro-4-methyl-5-2(2,2,2-trifluoroethylsulfanyl)-phenyl]-3H-quinazolin-4-one] | ≥ 70 |  |  |  |  |  |
